{
  "source": "patent US20050175589A1",
  "about": "“Anti-neoplastic viral agents” (priority 2001, published 2005)",
  "key": {"[1]": {"test_system": "SW480 cells", "procedure": "(§1) (a) Sensitivity of colon cancer cell lines to 5-FU. Cells were stained four days after addition of the drug. (b to e, g) Cytopathic effect assays using 10-fold dilutions of virus starting from a concentration of 10 pfu/cell. Fresh medium was added four days after infection and cells were stained 5 (SW480), 7 (Hct116 and Hct116^−/−), or 8 (HT29 and HLF) days post-infection. (f) 5-FC was added either immediately after infection (early, E) or four days after infection (late, L). Cells were stained 8 days after infection.\n(§2) Cells in six-well plates were infected with ten-fold dilutions of virus in DMEM. Two hours after infection, the medium was replaced with complete medium containing or not 100 μg/ml of 5-fluorocytosine (Sigma, St. Louis, USA). Four days after infection, new medium was added. Late addition of 5-FC was performed at that time. After five to eight days (see legend to FIG. 4), the cells were fixed with 4% formaldehyde in PBS and stained with crystal violet. For the sensitivity to 5-fluorouracil (Sigma, St. Louis, USA), the drug was added at various concentrations for four days before staining with crystal violet."}, "[2]": {"test_system": "Hct116 cells with homozygous deletion of p53", "procedure": "as §1, §2"}},
  "data": [
    {"smiles": "O=c1[nH]cc(F)c(=O)[nH]1", "note": "[5-FU, 5-fluorouracil]", "values": [
      {"measurement": "resistance of SW480 cells to 5-FU relative to the other cell lines", "setting": "[1]", "result": "at least 10 fold"},
      {"measurement": "resistance of p53-deleted Hct116 cells to 5-FU relative to parental cells", "setting": "[2]", "result": "only slightly more resistant than the parental cells"}
    ]}
  ]
}
